Results taken from the NIST ThermoML archive (doi:10.1016/j.tca.2006.04.022).
Numbers after ± are expanded uncertainties.

Details: Adiabatic calorimetry

Molecule `CCOS(=O)(=O)[O-].CCn1cc[n+](C)c1` [1-ethyl-3-methylimidazolium ethyl sulfate] has a Glass transition temperature of -80.30 ± 0.05 °C.
